Measured values as given in patent US6335331B1, “Pseudopolymorphic forms of 2-[2-[4-[Bis (4-fluorophenyl) methyl]-1-piperazinyl]ethoxy]acetic acid dihydrochloride” (UCB, S.A., priority 1997, dated 2002).

How the values were obtained:
[1] = Clinical pharmacology study in urticaria, atopic dermatitis and prurit; format: in vivo; settings: clinical pharmacology study (to be published)
histamine H1-receptor = histamine H1-receptor (Homo sapiens, UniProt P35367); settings: in vitro; cited from earlier work
Sequence of histamine H1-receptor (P35367 whole entry, species assumed): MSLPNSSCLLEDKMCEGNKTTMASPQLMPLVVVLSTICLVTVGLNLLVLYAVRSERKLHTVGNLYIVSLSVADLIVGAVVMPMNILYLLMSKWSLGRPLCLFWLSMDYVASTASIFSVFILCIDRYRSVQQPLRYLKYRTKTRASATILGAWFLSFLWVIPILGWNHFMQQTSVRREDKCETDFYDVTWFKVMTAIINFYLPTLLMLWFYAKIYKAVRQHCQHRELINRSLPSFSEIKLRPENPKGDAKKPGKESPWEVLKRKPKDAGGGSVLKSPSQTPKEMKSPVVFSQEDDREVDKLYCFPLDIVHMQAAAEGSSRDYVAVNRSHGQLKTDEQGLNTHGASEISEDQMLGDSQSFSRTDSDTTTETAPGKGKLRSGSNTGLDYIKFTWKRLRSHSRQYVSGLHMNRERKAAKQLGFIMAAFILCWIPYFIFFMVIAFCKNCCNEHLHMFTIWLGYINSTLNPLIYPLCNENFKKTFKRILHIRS

[2] = Intrinsic dissolution rate (static disc method, USP XXII apparatus No 2); format: physicochemical; settings: 70:30 (w/w) with AVICEL PH102, dihydrochloride
Procedure: Drug bioavailability studies have shown that an intrinsic dissolution rate (IDR) lower than 0.1 mg/cm^2/min can often be predictive of a dissolution rate-limited absorption in humans. Thus, IDR is a predictive parameter of bioavailability. This parameter depends upon various physicochemical properties including, the chemical form (salt, solvate), the crystal form, the solubility and wettability. The determination of IDR was performed in the following way. The Form to be tested was homogeneously ground and mixed with microcrystalline cellulose AVICEL PH102 (dry binder which improves tableting properties). The substance:excipient mix ratio was 70:30 (w/w). Aliquots (500 mg) were compressed into pellets by compression until a final applied load of 10 tons in order to obtain a constant and known surface area of zero porosity. The dissolution experiments were carried out at 37° C. using 500 ml of aqueous media at three different pH values intended to cover the expected range of human gastrointestinal pH values, i.e. 1.2, 4.0 and 7.5. Uniform and reproducible haemodynamic conditions were obtained by carrying out the test with USP XXII apparatus N°2 (United States Pharmacopoeia, 1990) in which a paddle is used as stirring element (50 rpm) and the pellet assembly is placed at the bottom of the vessel (static disc method). Statistically assessed (p<0.05) linear portions of all replicate dissolution curves were selected for subsequent IDR calculation.

[3] = Storage stability of the pure forms under stress temperature, HPLC/UV; format: physicochemical; settings: pure form, 40° or 60° C., 4, 16 or 24 weeks
Procedure: This is illustrated in the results of the following study, aimed at examining the stabilities of the two pseudopolymorphic forms in the presence of D-sorbitol during storage under stress temperature conditions, that is, in sealed vials at 40 or 60° C. In this study, HPLC analysis of several samples was performed: Form A, Form B, D-sorbitol and 1:1 (w/w) mixtures of Form A or Form B with D-sorbitol. Each sample was homogeneously ground and mixed. Aliquots (500 mg) were compressed into 13 mm diameter pellets at an applied load of 1 ton which a usual compression strength for pharmaceutical tablets. Each compact pellet was immediately ground into a fine powder, and an aliquot was stored in a tightly sealed glass vial at 40 or 60° C. Samples were analysed by HPLC after 0, 4, 16 and 24 weeks. p In a first series of analyses, HPLC/UV spectra were collected using a Kontron HPLC system type 300 fitted with a UV detector. The column used was Supercosil RP—ABZ 250×4.6 mm I.D. 5 μm particle size, and the mobile phase used consisted of an acetonitrile/water 25:75 (v/v) mixture, the water containing 770 mg/l ammonium acetate. Samples to be analysed were dissolved in acetonitrile/water 25:75 (v/v) at a concentration of 2 mg/ml, and 10 μl of these solutions were injected in the HPLC system. […] Pure D-sorbitol was not detected in HPLC/UV. […]

[4] = Storage stability of 1:1 (w/w) binary mixtures with D-sorbitol: sorbitol-efletirizine monoester by HPLC-UV; format: physicochemical; settings: for sorbitol-efletirizine monoester, Relative % area: 1:1 (w/w) with D-sorbitol; for monoester formation (in words): pellet with D-sorbitol
Procedure: This is illustrated in the results of the following study, aimed at examining the stabilities of the two pseudopolymorphic forms in the presence of D-sorbitol during storage under stress temperature conditions, that is, in sealed vials at 40 or 60° C. In this study, HPLC analysis of several samples was performed: Form A, Form B, D-sorbitol and 1:1 (w/w) mixtures of Form A or Form B with D-sorbitol. Each sample was homogeneously ground and mixed. Aliquots (500 mg) were compressed into 13 mm diameter pellets at an applied load of 1 ton which a usual compression strength for pharmaceutical tablets. Each compact pellet was immediately ground into a fine powder, and an aliquot was stored in a tightly sealed glass vial at 40 or 60° C. Samples were analysed by HPLC after 0, 4, 16 and 24 weeks. p In a first series of analyses, HPLC/UV spectra were collected using a Kontron HPLC system type 300 fitted with a UV detector. The column used was Supercosil RP—ABZ 250×4.6 mm I.D. 5 μm particle size, and the mobile phase used consisted of an acetonitrile/water 25:75 (v/v) mixture, the water containing 770 mg/l ammonium acetate. Samples to be analysed were dissolved in acetonitrile/water 25:75 (v/v) at a concentration of 2 mg/ml, and 10 μl of these solutions were injected in the HPLC system. Upon comparing the HPLC spectra obtained for the individual components and for the binary mixtures, new peaks detected were considered indicative of an interaction with D-sorbitol. When present, these new peaks were quantified and further identified by HPLC/MS analysis, using a VG Quattro spectrometer coupled onto a Kontron HPLC system. In HPLC/MS, the new peaks observed for the binary mixtures were identified as a sorbitol-efletirizine monoester and dehydrated forms of a sorbitol-efletirizine monoester. The latter appeared after longer storage periods than the former. […] Relative quantification of monoester was performed by HPLC-UV analysis.

[5] = 40° C., 4 weeks, dihydrochloride
[6] = 40° C., 16 weeks, dihydrochloride
[7] = 40° C., 24 weeks, dihydrochloride
[8] = 60° C., 0 weeks, dihydrochloride
[9] = 60° C., 4 weeks, dihydrochloride
[10] = 60° C., 16 weeks, dihydrochloride
[11] = 60° C., 24 weeks, dihydrochloride
[12] = storage at 60° C., dihydrochloride

SMILES	results in the treatment of urticaria, atopic dermatitis and prurit [1]	affinity for H1-receptors (histamine H1-receptor)	selectivity for H1-receptors (histamine H1-receptor)	Intrinsic dissolution rate ([2]; pH 1.2, 37° C.)	Intrinsic dissolution rate ([2]; pH 4.0, 37° C.)	Intrinsic dissolution rate ([2]; pH 7.5, 37° C.)	modifications of the HPLC/UV spectrograms after storage [3]	sorbitol-efletirizine monoester, Relative % area ([4]; 40° C., 0 weeks)	sorbitol-efletirizine monoester, Relative % area [4, 5]	sorbitol-efletirizine monoester, Relative % area [4, 6]	sorbitol-efletirizine monoester, Relative % area [4, 7]	sorbitol-efletirizine monoester, Relative % area [4, 8]	sorbitol-efletirizine monoester, Relative % area [4, 9]	sorbitol-efletirizine monoester, Relative % area [4, 10]	sorbitol-efletirizine monoester, Relative % area [4, 11]	monoester formation (in words) ([4]; storage at 40° C.)	monoester formation (in words) [4, 12]
O=C(O)COCCN1CCN(C(c2ccc(F)cc2)c2ccc(F)cc2)CC1 [efletirizine, 2-[2-[4-[Bis(4-fluorophenyl)methyl]-1-piperazinyl]ethoxy]acetic acid]	unexpectedly good results	high affinity	selectivity														
Cl.Cl.O=C(O)COCCN1CCN(C(c2ccc(F)cc2)c2ccc(F)cc2)CC1 [Form B, 2-[2-[4-[bis(4-fluorophenyl)methyl]-1-piperazinyl]ethoxy]acetic acid dihydrochloride]				4.05 ± 0.64 mg/cm^2/min	3.58 ± 0.50 mg/cm^2/min	3.31 ± 0.04 mg/cm^2/min	no modifications of the spectrograms were observed	0 Relative % area	0.13 Relative % area	0.16 Relative % area	0.23 Relative % area	0.04 Relative % area	0.87 Relative % area	2.69 Relative % area	2.95 Relative % area	quite low	very significant
Cl.Cl.O=C(O)COCCN1CCN(C(c2ccc(F)cc2)c2ccc(F)cc2)CC1 [Form A, 2-[2-[4-[bis(4-fluorophenyl)methyl]-1-piperazinyl]ethoxy]acetic acid dihydrochloride]				5.04 ± 0.34 mg/cm^2/min	5.43 ± 0.32 mg/cm^2/min	4.52 ± 0.34 mg/cm^2/min	no modifications of the spectrograms were observed	0 Relative % area	0.04 Relative % area	0.07 Relative % area	0.13 Relative % area	0.03 Relative % area	0.29 Relative % area	0.45 Relative % area	0.46 Relative % area	quite low	quite low
